Measured values taken from patent US20180311353A1, “TRIPLET-TRIPLET ANNIHILATION-BASED UPCONVERSION” (Children's Medical Center Corporation, priority 2015, published 2018).

Key:
[1] = 530 nm LED, 150 mW cm^−2
From the text: This example illustrates cell binding triggered by TTA-UC. Photo-triggered binding of NPTTA-c[R]GDfK to cells by flow cytometry and confocal microscopy, was studied with micelles in which a hydrophilic dye, Lissamine™ rhodamine B (LRB), was covalently bound to the PLA-PEG copolymer (forming PLA-PEG-LRB; FIG. 16).

[2] = Photocleavage of c[R]GDfK molecule (400 nm LED, HPLC); type: physicochemical; settings: PBS
Experimental: Construction of photo-targeted polymeric micelles. […] The identity of the peaks was further confirmed by mass spectrometry. Approximately 86% of cleavage occurred within 30 s of irradiation at 50 mW cm^−2 (FIG. 2C). At an irradiance as low as 2.3 mW cm^−2, ˜42% of c[R]GDfK was cleaved after 2 min of irradiation.
FIG. 2A. Photocleavage of c[R]GDfK. […] FIG. 2B. UV-visible absorption and fluorescence emission spectra of c[R]GDfK in PBS (pH 7.4). The excitation wavelength for the fluorescence spectrum was 385 nm. FIG. 2C. Photocleavage rate of c[R]GDfK in PBS, as determined by HPLC (detected at 390 nm), after continuous irradiation with 400 nm LED light at 2.3 mW cm^−2 and 50 mW cm^−2 (data are mean+/−SD; n=4). a.u.=arbitrary units. […]
Photocleavage of c[R]GDfK molecule. A disposable macro fluorescence cuvette containing 400 microliters of c[R]GDfK PBS solution (50 microgram/mL) was irradiated under an 11-mm LED (400 nm) collimator with a Multi-channel Universal LED controller (Mightex Systems, CA, USA). […] The LED irradiance was measured with a PM100USB Power and Energy Meter (ThorLabs, NJ, USA). At each irradiation time point, 50 microliters of the irradiated solution was analyzed by reverse-phase high-performance liquid chromatography (RP-HPLC) with an Agilent 1260 Infinity LC system and a Poroshell 120 EC-C18 column (4.6×100 mm) (Agilent Technologies, CA, USA). […]

[3] = Photocleavage of DEACM from NPTTA-c[R]GDfK (530 nm LED, centrifugal filtrate); type: physicochemical; settings: HPLC of filtrate
Experimental: Photocleavage of DEACM from NPTTA-c[R]GDfK. One milliliter of NPTTA-c[R]GDfK solution (1 mg mL^−1) was put in a quartz cuvette and irradiated with LED light (530 nm, 150 mW cm^−2). At each irradiation time, the solution was put in an Amicon® Ultra centrifugal filter (50,000 Da cut-off) and centrifuged at 4000 rmp for 15 min. […]
Photocleavage of DEACM from NPTTA-c[R]GDfK. […] At each irradiation time, the solution was transferred into an Amicon® Ultra centrifugal filter (MWCO: 50,000 Da) and centrifuged at 4000 rmp for 15 min. […]

Row | photostable under irradiation, time [1] | c[R]GDfK cleaved ([2]; 2.3 mW cm^−2, after 2 min) [%] | cleavage of c[R]GDfK ([2]; 50 mW cm^−2, within 30 s, 50 microgram/mL) | photocleavage of DEACM on 530 nm irradiation [3] | Molecule
1 | at least 10 min | – | – | – | CCN(CC)c1ccc2c(-c3ccc(S(=O)(=O)NCCN)cc3S(=O)(=O)O)c3ccc(=[N+](CC)CC)cc-3oc2c1.O=C(O)C(F)(F)F [LRB, Lissamine™ rhodamine B ethylenediamine]
2 | – | ~42 | Approximately 86% | did not cleave DEACM from c[R]GDfK | c[R]GDfK
